Experimental data from ChEMBL document CHEMBL1201862, “PubChem BioAssay data set” (2004).
Counter-ions that a name gives are not always drawn.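 In this assay, cells in 96-well plates receive the compound at five concentrations for 48 hours. Endpoints are linearly interpolated between the surrounding concentrations. GI50: concentration for 50% inhibition of growth.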 The source made the active and inactive calls. No stated cut-off is given here; in the data, active = GI50 up to about 1.1 µM and inactive = higher.

How the values were obtained:
Assay in all cases: inhibition of tumour cell growth, NCI panel, 48 h
DU-145 = tested on: DU-145
IGROV-1 = tested on: IGROV-1
SNB-75 = tested on: SNB-75
T47D = tested on: T47D
OVCAR-5 = tested on: OVCAR-5
M14 = tested on: M14
A549 = tested on: A549
SF-295 = tested on: SF-295
SK-MEL-28 = tested on: SK-MEL-28
K562 = tested on: K562
NCI-H522 = tested on: NCI-H522
TK-10 = tested on: TK-10
COLO 205 = tested on: COLO 205
CAKI-1 = tested on: CAKI-1
HCT-15 = tested on: HCT-15
OVCAR-3 = tested on: OVCAR-3
NCI-H226 = tested on: NCI-H226
SN12C = tested on: SN12C
HOP-62 = tested on: HOP-62
KM12 = tested on: KM12
SF-539 = tested on: SF-539
HCT-116 = tested on: HCT-116
MDA-MB-435 = tested on: MDA-MB-435
OVCAR-8 = tested on: OVCAR-8
CCRF-CEM = tested on: CCRF-CEM
Hs-578T = tested on: Hs-578T
786-0 = tested on: 786-0
U-251 = tested on: U-251
A498 = tested on: A498
BT-549 = tested on: BT-549
MOLT-4 = tested on: MOLT-4
NCI-H23 = tested on: NCI-H23
HOP-92 = tested on: HOP-92
SK-MEL-2 = tested on: SK-MEL-2
Malme-3M = tested on: Malme-3M
MDA-MB-231 = tested on: MDA-MB-231
ACHN = tested on: ACHN
SNB-19 = tested on: SNB-19
LOX IMVI = tested on: LOX IMVI
UO-31 = tested on: UO-31
HCC 2998 = tested on: HCC 2998
UACC-62 = tested on: UACC-62
OVCAR-4 = tested on: OVCAR-4
MCF7 = tested on: MCF7
NCI-H460 = tested on: NCI-H460
HT-29 = tested on: HT-29
RXF 393 = tested on: RXF 393
SR = tested on: SR
RPMI-8226 = tested on: RPMI-8226
UACC-257 = tested on: UACC-257
SF-268 = tested on: SF-268
MDA-N = tested on: MDA-N
NCI/ADR-RES = tested on: NCI/ADR-RES
HL-60 = tested on: HL-60
PC-3 = tested on: PC-3
SK-MEL-5 = tested on: SK-MEL-5
SW-620 = tested on: SW-620
EKVX = tested on: EKVX
SK-OV-3 = tested on: SK-OV-3

SMILES: N#Cc1cc2c(n(C3OC(CO)C(O)C(O)C3O)c1=S)CCC2 (centres undefined)
- GI50 (DU-145): > 100 µM (inactive)
- GI50 (IGROV-1): > 100 µM (inactive)
- GI50 (SNB-75): 97.3 µM (inactive)
- GI50 (T47D): > 100 µM (inactive)
- GI50 (OVCAR-5): > 100 µM (inactive)
- GI50 (M14): > 100 µM (inactive)
- GI50 (A549): > 100 µM (inactive)
- GI50 (SF-295): > 100 µM (inactive)
- GI50 (SK-MEL-28): > 100 µM (inactive)
- GI50 (K562): > 100 µM (inactive)
- GI50 (NCI-H522): > 100 µM (inactive)
- GI50 (TK-10): > 100 µM (inactive)
- GI50 (COLO 205): > 100 µM (inactive)
- GI50 (CAKI-1): > 100 µM (inactive)
- GI50 (HCT-15): > 100 µM
- GI50 (OVCAR-3): > 100 µM (inactive)
- GI50 (NCI-H226): > 100 µM (inactive)
- GI50 (SN12C): > 100 µM (inactive)
- GI50 (HOP-62): > 100 µM (inactive)
- GI50 (KM12): > 100 µM (inactive)
- GI50 (SF-539): > 100 µM (inactive)
- GI50 (HCT-116): > 100 µM (inactive)
- GI50 (MDA-MB-435): > 100 µM (inactive)
- GI50 (OVCAR-8): > 100 µM (inactive)
- GI50 (CCRF-CEM): > 100 µM (inactive)
- GI50 (Hs-578T): > 100 µM (inactive)
- GI50 (786-0): > 100 µM (inactive)
- GI50 (U-251): > 100 µM (inactive)
- GI50 (A498): > 100 µM (inactive)
- GI50 (BT-549): > 100 µM (inactive)
- GI50 (MOLT-4): > 100 µM (inactive)
- GI50 (NCI-H23): > 100 µM (inactive)
- GI50 (HOP-92): > 100 µM (inactive)
- GI50 (SK-MEL-2): > 100 µM (inactive)
- GI50 (Malme-3M): > 100 µM (inactive)
- GI50 (MDA-MB-231): > 100 µM (inactive)
- GI50 (ACHN): > 100 µM (inactive)
- GI50 (SNB-19): > 100 µM (inactive)
- GI50 (LOX IMVI): > 100 µM (inactive)
- GI50 (UO-31): > 100 µM (inactive)
- GI50 (HCC 2998): > 100 µM (inactive)
- GI50 (UACC-62): > 100 µM (inactive)
- GI50 (OVCAR-4): > 100 µM (inactive)
- GI50 (MCF7): > 100 µM (inactive)
- GI50 (NCI-H460): > 100 µM (inactive)
- GI50 (HT-29): > 100 µM (inactive)
- GI50 (RXF 393): > 100 µM (inactive)
- GI50 (SR): > 100 µM (inactive)
- GI50 (RPMI-8226): > 100 µM (inactive)
- GI50 (UACC-257): > 100 µM (inactive)
- GI50 (SF-268): > 100 µM (inactive)
- GI50 (MDA-N): > 100 µM (inactive)
- GI50 (NCI/ADR-RES): > 100 µM (inactive)
- GI50 (HL-60): > 100 µM (inactive)
- GI50 (PC-3): > 100 µM (inactive)
- GI50 (SK-MEL-5): > 100 µM (inactive)

SMILES: CC(C)C[C@H]1C(=O)N2CCC[C@H]2[C@]2(O)O[C@](NC(=O)[C@@H]3C=C4c5cccc6[nH]c(Br)c(c56)C[C@H]4N(C)C3)(C(C)C)C(=O)N12 [BROMOCRIPTINE MESYLATE]
- GI50 (SW-620): 72.6 µM (inactive)
- GI50 (DU-145): > 100 µM (inactive)
- GI50 (IGROV-1): 67.5 µM (inactive)
- GI50 (EKVX): 4.74 µM (inactive)
- GI50 (SNB-75): 40.9 µM (inactive)
- GI50 (T47D): 28.2 µM (inactive)
- GI50 (OVCAR-5): > 100 µM (inactive)
- GI50 (M14): 61.1 µM (inactive)
- GI50 (A549): 6.98 µM (inactive)
- GI50 (SF-295): 39.8 µM (inactive)
- GI50 (SK-MEL-28): > 100 µM (inactive)
- GI50 (K562): 4.65 µM (inactive)
- GI50 (NCI-H522): 34 µM (inactive)
- GI50 (TK-10): 15.1 µM (inactive)
- GI50 (COLO 205): 5.27 µM (inactive)
- GI50 (CAKI-1): 46.1 µM (inactive)
- GI50 (HCT-15): 8.67 µM
- GI50 (OVCAR-3): 8.87 µM (inactive)
- GI50 (NCI-H226): 51.2 µM (inactive)
- GI50 (SN12C): 56.1 µM (inactive)
- GI50 (HOP-62): > 100 µM (inactive)
- GI50 (KM12): 9.82 µM (inactive)
- GI50 (SF-539): > 100 µM (inactive)
- GI50 (HCT-116): 5.33 µM (inactive)
- GI50 (MDA-MB-435): 38.2 µM (inactive)
- GI50 (OVCAR-8): > 100 µM (inactive)
- GI50 (CCRF-CEM): 4.56 µM (inactive)
- GI50 (Hs-578T): 25.2 µM (inactive)
- GI50 (786-0): 53.2 µM (inactive)
- GI50 (SK-OV-3): > 100 µM (inactive)
- GI50 (U-251): 35.8 µM (inactive)
- GI50 (A498): > 100 µM (inactive)
- GI50 (BT-549): > 100 µM (inactive)
- GI50 (MOLT-4): 4.34 µM (inactive)
- GI50 (HOP-92): > 100 µM (inactive)
- GI50 (SK-MEL-2): > 100 µM (inactive)
- GI50 (Malme-3M): 36.5 µM (inactive)
- GI50 (MDA-MB-231): > 100 µM (inactive)
- GI50 (ACHN): 13 µM (inactive)
- GI50 (SNB-19): > 100 µM (inactive)
- GI50 (LOX IMVI): > 100 µM (inactive)
- GI50 (UO-31): 4.61 µM (inactive)
- GI50 (HCC 2998): 32.8 µM (inactive)
- GI50 (UACC-62): > 100 µM (inactive)
- GI50 (OVCAR-4): > 100 µM (inactive)
- GI50 (MCF7): 8.87 µM (inactive)
- GI50 (NCI-H460): 10.8 µM (inactive)
- GI50 (HT-29): 13.6 µM (inactive)
- GI50 (RXF 393): 24.7 µM (inactive)
- GI50 (SR): 6.11 µM (inactive)
- GI50 (RPMI-8226): 3.8 µM (inactive)
- GI50 (UACC-257): 49.5 µM (inactive)
- GI50 (SF-268): 59.6 µM (inactive)
- GI50 (MDA-N): 69.8 µM (inactive)
- GI50 (NCI/ADR-RES): 9.35 µM (inactive)
- GI50 (HL-60): 2.51 µM (inactive)
- GI50 (PC-3): 4.17 µM (inactive)
- GI50 (SK-MEL-5): 21.7 µM (inactive)
